Experimental data taken from patent publication EP2729445B1, “CYCLIC AMINE DERIVATIVES AS EP4 RECEPTOR ANTAGONISTS” (Rottapharm Biotech S.r.l., priority 2011, dated 2013).
pIC50: −log10 of the molar value. Like-named read-outs stand apart in the source and are kept apart here.

Legend:
[1] = Pharmacokinetics after intravenous and oral treatment, plasma LC-MS/MS; format: in vivo, male Han Wistar rats; conditions: rat; for AUC(0-t) / AUC(0-inf) / half-life / clearance / Vd / Cmax / Tmax / bioavailability: male, Han Wistar, plasma; for AUC(0-inf): extrapolated to infinity; for half-life / clearance / Vd: extrapolated, indicative only; for clearance: read-out: CLp* (converted); for Vd: read-out: Vss*
Description: The pharmacokinetics of compounds E7, E17 and E18, were studied in male Han Wistar rats. The rats were treated intravenously and orally (n=3 for each dose route) with compounds formulated as solutions. The rats were fitted with a jugular cannula for serial sampling. A full profile was acquired from each rat. Plasma extracts were quantitatively analyzed using a specific and sensitive LC-MS/MS bioanalytical method. Inter-individual variations between the three rats in each group were limited (CV for pharmacokinetic parameters was below 50%). […] A range of clearance values were obtained for the different structure, ranging from low to moderate values (from 43 to 250 ml/h). After oral administration, absorption was quite fast with a clear maximum concentration reached by the first sampling time-point of 15 minutes for all compounds.

hEP4 receptors [2] = molecular target: T1, hEP4 receptors (Homo sapiens, UniProt P35408); assay: cAMP assay (AlphaScreen) on human EP4 membrane of transfected cells, antagonism of PGE2; format: biochemical; conditions: HEK293 cell membrane stimulated with PGE2 3nM; read-out: functional IC50
T1 construct: membrane fraction used
T1 sequence (P35408 whole entry): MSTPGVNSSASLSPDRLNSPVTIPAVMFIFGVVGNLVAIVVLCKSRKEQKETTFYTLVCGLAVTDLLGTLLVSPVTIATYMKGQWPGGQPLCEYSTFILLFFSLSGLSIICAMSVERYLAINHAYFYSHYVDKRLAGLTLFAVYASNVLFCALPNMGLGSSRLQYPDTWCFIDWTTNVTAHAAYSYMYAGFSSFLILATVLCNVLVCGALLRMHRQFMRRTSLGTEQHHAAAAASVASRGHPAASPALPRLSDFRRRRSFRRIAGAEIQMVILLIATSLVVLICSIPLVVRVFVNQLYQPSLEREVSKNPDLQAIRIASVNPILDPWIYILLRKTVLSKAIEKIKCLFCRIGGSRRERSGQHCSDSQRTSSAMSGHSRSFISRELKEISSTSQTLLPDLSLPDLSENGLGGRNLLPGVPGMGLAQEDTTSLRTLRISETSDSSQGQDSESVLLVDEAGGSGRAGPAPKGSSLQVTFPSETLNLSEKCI
Description: (§1) The cDNA clone of human EP4 receptor (NM_000958.2) was obtained from InvitrogenTM: Ultimate™ ORF Clone Collection - Clone ID IOH46525. The coding sequence was subcloned in expression vector pcDNATM6.2/V5-DEST by Gateway technology (InvitrogenTM). Human embryonic kidney cells (HEK-293) were stably transfected with expression vector for human EP4 receptor in according to the method described in FuGENE®6 Transfection Reagent's manual (Roche Applied Science®).
(§2) The EP4 transfected cells were grown in Dulbecco's modified Eagle's medium containing 10% fetal bovine serum and 10 µg/ml Blasticidin S HCl (selection medium) at 37°C in a humidified atmosphere of 5% CO2 in air. For the membrane preparation, cells in flask were harvested by hypotonical/mechanical lysis with chilled (4°C) TE buffer (5mM TRIS, 5mM ethylenediamine tetra-acetic acid (EDTA), pH 7.4). Cells were detached and lysed with 10ml of hypotonic lysis buffer and by scraping. The cell lysate was vortexed for 30 sec and centrifuged at 40000x g at 4°C for 22min.
The assay is based on the competition between endogenous cAMP and exogenously added biotinylated cAMP. The capture of cAMP is achieved by using a specific antibody conjugated to Donor beads. Cell membranes prepared as described above, were resuspended in 1 ml stimulation buffer (HBSS 1X + BSA 0.1% + IBMX 0.5mM + HEPES 5mM + MgCl2 10mM + GTP 1 nM + GDP 10µM + ATP 100µM - pH 7.4). Cell membranes were dispensed into white 384-well microplates at final concentration of 1µg/well and used for the determination of cAMP with the alphascreen cAMP functional assay (EnVision - PerkinElmer). Cell membrane/anti-cAMP Acceptor beads mix (5 µl) and a mixture of analysed compounds (dissolved in 100% DMSO to a final maximal concentration of 0.01% DMSO)/PGE2 (5 µl) were incubated at room temperature (22-23°C) for 30 min in the dark. The Biotinylated-cAMP and donor beads (15 µl) were dispensed into each well to start the competition reaction. After 1 h incubation RT (22-23°C) in the dark the plate was read using EnVision platform to determine the cAMP level (excitation: 680nm; emission:520,620nm). In each experiment:
cAMP standard curve (concentration range from 1x10-6 to 1x10-11 M in log intervals) with a negative control (no cAMP)
a positive control: forskolin 10µM
Antagonism studies were performed stimulating HEK293 cell membrane with PGE2 3nM. The AlphaScreen signal is plotted as a function of log concentration of cAMP and functional IC50 is determined. IC50 value is calculated by linear regression.

hEP4 receptors [3] = molecular target: T1, hEP4 receptors; assay: [3H]-Prostaglandin E2 membrane binding assay
Description: as §1, §2
The membrane pellet was resuspended in the same buffer (5mM TRIS, 5mM ethylenediamine tetra-acetic acid (EDTA), pH 7.4), and protein concentration was determined by Bradford method (Bio-Bad® assay). This membrane preparation was stored at -80°C freezer until use for binding assay. ([^3H]-PGE2) membranes binding assays toward hEP4 receptors (human EP4/HEK293 transfectant, see above) and hEP2 receptors (human EP2/HEK293 transfectant, purchased from PerkinElmer Inc) were performed in 10 mM MES-KOH buffer pH6, containing 10 mM MgCl2 and 1 mM CaCl2 for EP4 binding assay or 50 mM Tris-Cl, BSA 0.5% for EP2 binding assay (according to supplier indication) . Ten microgram of protein from membrane fractions were incubated in a total volume of 0.1ml (EP4) or 0.2ml (EP2) with 1nM (EP4) or 3nM (EP2) [^3H]-PGE2 (PerkinElmer Inc, 171Ci/mmol). In both assays to determine the total binding or non specific binding, 1% DMSO or 1µM prostaglandin E2 (EP4) or 100 µM (EP2) were added to reaction mixtures, respectively. Incubation was conducted in a polypropylene 96 multiwell for 90 min (EP4) or 60 min (EP2) at room temperature prior to separation of the bound and free radioligand by vacuum manifold rapid filtration on glass fiber filters (Unifilter GFB96, PerkinElmer Inc) pre-soaked in 0.3% polyethyleneimine. Filters were washed with ice cold buffer pH 7.4 (50mM HEPES, NaCl 500mM, BSA 0.1% for EP4 binding assay or 50mM Tris-Cl for EP2 binding assays) and the residual [^3H]-PGE2 binding determined by solid scintillation counter (TopCount , PerkinElmer Inc).
The affinity (Ki) of each compound was calculated according to the Cheng-Prousoff equation: Ki = IC50/(1+([C]/Kd)). Results were expressed as pKi (- log10 Ki (M)

[4] = read-out: Binding pKi (converted)
[5] = human EP4/HEK293 transfectant membranes, 1nM [3H]-PGE2, Ki from IC50 by Cheng-Prousoff, pKi = -log10 Ki (M)

## O=C(O)c1ccc(C2(NC(=O)C3CC4(CCN3Cc3ccc(C(F)(F)F)cc3)CC4)CC2)cc1 (single isomer, unassigned) [Example E7, 4-(1-(6-(4-(trifluoromethyl)benzyl)-6-azaspiro[2.5]octane-5-carboxamido)cyclopropyl)benzoic acid]
[1]; iv, 5 mg/kg
  AUC(0-t): 29200 ng·h/mL
  AUC(0-inf): 31800 ng·h/mL
  half-life: 7.4 h
  clearance: 0.717 mL/min
  Vd: 0.395 L
  Tlast: 24 h
[1]; po, 5 mg/kg
  AUC(0-t): 22900 ng·h/mL
  Cmax: 5330 ng/mL
  Tmax: 0.5 h
  AUC(0-inf): 24900 ng·h/mL
  half-life: 6.7 h
  Tlast: 24 h
[1]; po, 5 mg/kg, absolute oral bioavailability
  bioavailability: 78%
hEP4 receptors [2]
  pIC50: 7.66
hEP4 receptors [3]; [4]
  Ki: 3.16e-08 M

## O=C(O)c1ccc(C2(NC(=O)C3CC4(CCN3Cc3cccc(C(F)(F)F)c3)CC4)CC2)cc1 (single isomer, unassigned) [Example E9, 4-(1-(6-(3-(trifluoromethyl)benzyl)-6-azaspiro[2.5]octane-5-carboxamido)cyclopropyl)benzoic acid]
hEP4 receptors [2]
  pIC50: 8.40
hEP4 receptors [3]; [5]
  Ki: 6.31e-09 M

## C[C@H](NC(=O)C1CC2(CCN1Cc1ccc(C(F)(F)F)cc1)CC2)c1ccc(C(=O)O)cc1 (single isomer, unassigned) [Example E10]
hEP4 receptors [2]
  pIC50: 7.54
hEP4 receptors [3]; [4]
  Ki: 3.98e-08 M

## C[C@H](NC(=O)C1CC(C)(C)CCN1Cc1ccc(C(F)(F)F)cc1)c1ccc(C(=O)O)cc1 (single isomer, unassigned) [Example E13]
hEP4 receptors [2]
  pIC50: 8.10
hEP4 receptors [3]; [5]
  Ki: 1.26e-08 M

## O=C(O)c1ccc(C2(NC(=O)C3CC(F)(F)CCN3Cc3ccc(C(F)(F)F)cc3)CC2)cc1 (single isomer, unassigned) [Example E18, 4-(1-(4,4-difluoro-1-(4-(trifluoromethyl)benzyl)piperidine-2-carboxamido)cyclopropyl)benzoic acid]
[1]; iv, 1 mg/kg
  AUC(0-t): 1260 ng·h/mL
  AUC(0-inf): 1390 ng·h/mL
  half-life: 9.3 h
  clearance: 3.17 mL/min
  Vd: 1.7 L
  Tlast: 24 h
[1]; po, 1 mg/kg
  AUC(0-t): 1170 ng·h/mL
  Cmax: 556 ng/mL
  Tmax: 0.5 h
  AUC(0-inf): 1200 ng·h/mL
  half-life: 5.1 h
  bioavailability: 93%
  Tlast: 24 h
hEP4 receptors [2]
  pIC50: 7.96
hEP4 receptors [3]; [4]
  Ki: 6.31e-09 M

## O=C(O)c1ccc(C2(NC(=O)C3CC4CC4CN3Cc3ccc(C(F)(F)F)cc3)CC2)cc1 (single isomer, unassigned) [Example E23, 4-(1-(3-(4-(trifluoromethyl)benzyl)-3-azabicyclo[4.1.0]heptane-4-carboxamido)cyclopropyl)benzoic acid]
hEP4 receptors [2]
  pIC50: 7.94
hEP4 receptors [3]; [4]
  Ki: 1e-08 M

## O=C(O)c1ccc(C2(NC(=O)[C@H]3CCCCN3Cc3ccc(C(F)(F)F)cc3)CC2)cc1 [Example E4, lithium (R)-4-(1-(1-(4-(trifluoromethyl)benzyl)piperidine-2-carboxamido)cyclopropyl)benzoate]
hEP4 receptors [2]
  pIC50: 7.49

## C[C@H](NC(=O)[C@H]1CC(F)(F)CCN1Cc1ccc(C(F)(F)F)cc1)c1ccc(C(=O)O)cc1 [Example E16, 4-((S)-1-((R)-4,4-difluoro-1-(4-(trifluoromethyl)benzyl)piperidine-2-carboxamido)ethyl)benzoic acid]
hEP4 receptors [2]
  pIC50: 8.05
hEP4 receptors [3]; [5]
  Ki: 2e-08 M

## O=C(O)c1ccc(C2(NC(=O)[C@H]3CCC4CC4N3Cc3ccc(C(F)(F)F)cc3)CC2)cc1 (stereo partly drawn) [Example E25, 4-(1-((3R)-2-(4-(trifluoromethyl)benzyl)-2-azabicyclo[4.1.0]heptane-3-carboxamido)cyclopropyl)benzoic acid]
hEP4 receptors [2]
  pIC50: 7.37
hEP4 receptors [3]; [4]
  Ki: 3.16e-09 M

## C[C@H](NC(=O)[C@H]1CCC2CC2N1Cc1ccc(C(F)(F)F)cc1)c1ccc(C(=O)O)cc1 (stereo partly drawn) [Example E26, 4-((1S)-1-((3R)-2-(4-(trifluoromethyl)benzyl)-2-azabicyclo[4.1.0]heptane-3-carboxamido)ethyl)benzoic acid]
hEP4 receptors [2]
  pIC50: 7.38
hEP4 receptors [3]; [4]
  Ki: 1.58e-09 M

## C[C@H](NC(=O)[C@H]1CCCN1Cc1ccc(C(F)(F)F)cc1)c1ccc(C(=O)O)cc1 [Example E27, lithium 4-((S)-1-((R)-1-(4-(trifluoromethyl)benzyl)pyrrolidine-2-carboxamido)ethyl)benzoate]
hEP4 receptors [2]
  pIC50: 7.30

## O=C(O)c1ccc(C2(NC(=O)[C@H]3C[C@H]4C[C@H]4N3Cc3cccc(C(F)(F)F)c3)CC2)cc1 [Example E29, 4-(1-((1R,3R,5R)-2-(3-(trifluoromethyl)benzyl)-2-azabicyclo[3.1.0]hexane-3-carboxamido)cyclopropyl)benzoic acid]
hEP4 receptors [2]
  pIC50: 7.80
hEP4 receptors [3]; [4]
  Ki: 2.51e-09 M

## O=C(O)c1ccc(C2(NC(=O)[C@H]3C[C@H]4C[C@H]4N3Cc3ccc(C(F)(F)F)cc3)CC2)cc1 [Example E30, 4-(1-((1R,3R,5R)-2-(4-(trifluoromethyl)benzyl)-2-azabicyclo[3.1.0]hexane-3-carboxamido)cyclopropyl)benzoic acid]
hEP4 receptors [2]
  pIC50: 7.68
hEP4 receptors [3]; [5]
  Ki: 5.01e-09 M
